In PMC10498667 (Chemical Science, 2023):
Where two headings read alike, the source gives them in different places.

Columns and labels:
Type in all cases: biochemical
[1] = target: T1, Electric eel acetylcholinesterase (eeAChE) (Electrophorus electricus, UniProt O42275); experiment: Fluorometric AChE activity assay
T1 construct: purchased Invitrogen (AChE assay kit)
From the text: Inhibiting the activity of AChE can maintain a proper level of ACh under dysregulated cholinergic conditions.[10,11] Thus, the inhibitory capability of flavonoids against AChE was investigated by a previously reported fluorescent AChE assay with slight modifications.[60] […] The inclusion of three hydroxyl groups on the A ring is critical for controlling the catalytic activity of AChE, as previously reported,[49] whereas the incorporation of a chloro substituent, with three hydroxyl groups, and methoxy moieties instead of hydroxyl groups on the A ring can decrease such inhibitory activity. Flavonoids 2, 3, and 1b over 1 illustrates the importance of the position of hydroxyl groups on the A ring and the isoflavone variation in directing the flavonoids' ability to inhibit the activity of AChE. […]
All experiments were performed in triplicate.
AChE Activity Assay. The AChE inhibitory activity of flavonoids was measured by a fluorometric AChE assay kit (Invitrogen) following the manufacturer ’s protocol with slight modifications.
Electric eel acetylcholinesterase (eeAChE) was dissolved and diluted with a working solution. The eeAChE solution (50 µL) was added into a 96-well plate. Various concentrations of flavonoids were then introduced into the 96-well plate. The final concentrations of flavonoids were as follow: […]
µM). After shaking, the mixture of eeAChE and flavonoids was pre-incubated for 15 min. A reaction mixture containing acetylcholine, an AChE probe, and AbRedTM was added into the 96-well plate to initiate the reaction. The AChE activity was calculated based on the fluorescence intensity (lex/lem = 571/585 nm) of the wells that was detected after 15 min incubation. Data were normalized to the control (no inhibitor). All experiments were performed in triplicate. […]
For the disaggregation studies, Ab (25 µM) was incubated with and without CuCl2 or ZnCl2 (25 µM) for 24 h at 37 °C with constant agitation to generate preformed Ab aggregates. The resultant Ab aggregates were then treated with flavonoids (50 µM) and incubated for additional 24 h with constant agitation. For the additional disaggregation experiments, preformed Ab42 aggregates (25 µM) or Ab42 seeds (10% v/v) with or without metal ions (25 µM for CuCl2 and ZnCl2) were incubated with flavonoids (50 µM) for 24 h with constant agitation. The resultant Ab aggregates were then treated with freshly prepared Ab42

[2] = target: T2, Aβ42 (Homo sapiens, UniProt P05067); experiment: Aβ42 aggregation inhibition experiments (gel/western blot, TEM); conditions: flavonoid 50 μM, 24 h
T2 construct: purchased Peptide Institute, Inc. (Osaka, Japan)
Protocol: To verify whether a series of nine flavonoids can modulate the aggregation of Aβ with and without metal ions, the molecular weight (MW) distribution and morphology of the resultant Aβ species were determined by gel electrophoresis with western blotting (gel/western blot) using an anti-Aβ antibody (6E10) and transmission electron microscopy (TEM), respectively. Two types of experiments were carried out employing two major Aβ isoforms, i.e., Aβ42 and Aβ40:[25] (i) inhibition studies to identify the effect of 1–5, 1a, 1b, 4a, and 4b on the formation of Aβ aggregates; (ii) disaggregation studies to evaluate if the flavonoids with reactivities towards Aβ aggregation in inhibition studies can disassemble preformed Aβ aggregates or modulate their further aggregation, as illustrated in Fig. 4 and S5–S9. ^† Moreover, the solutions containing the flavonoids and Cu(II) were probed by electronic absorption (Abs) spectroscopy to monitor their metal binding. […] As expected, no Abs change of 1a and 4a composed of methoxy groups on the A ring was detected by addition of Cu(II). […]
Ab Aggregation Experiments. Ab was dissolved in ammonium hydroxide [1% w/w NH4OH (aq)] and the resulting solution was aliquoted, lyophilized overnight, and stored at –80 °C. A stock solution of Ab was then prepared by dissolving the lyophilized peptide with NH4OH (1% w/w, aq; 10 µL) and diluting with ddH2O. All Ab samples were prepared following previously reported procedures.21,22 The concentration of the peptide solution was determined by measuring its […]
solution (20 mM HEPES, pH 7.4, 150 mM NaCl) was used for preparing Ab samples. For the inhibition studies, flavonoids (final concentration, 50 µM; 1% v/v DMSO) were added to the samples of Ab (25 µM) in the absence and presence of CuCl2 or ZnCl2 (25 µM) followed by incubation for 24 h at 37 °C with constant agitation. For the disaggregation studies, Ab (25 µM) was incubated with and without CuCl2 or ZnCl2 (25 µM) for 24 h at 37 °C with constant agitation to generate preformed Ab aggregates. The resultant Ab aggregates were then treated with flavonoids (50 µM) and incubated for additional 24 h with constant agitation. For the additional disaggregation experiments, preformed Ab42 aggregates (25 µM) or Ab42 seeds (10% v/v) with or without metal ions (25 µM for CuCl2 and ZnCl2) were incubated with flavonoids (50 µM) for 24 h with constant agitation. The resultant Ab aggregates were then treated with freshly prepared Ab42 […]
(25 µM) and incubated for additional 24 h with constant agitation.
Gel/Western Blot. The resultant Ab species from the aggregation experiments were analyzed by gel/Western blot using an anti-Ab antibody (6E10, Covance, Princeton, NJ, USA).21,22 Each sample (10 µL) was separated on a 10–20% tricine gel (Invitrogen). Following separation, the proteins were transferred onto nitrocellulose membranes and blocked with bovine serum albumin (BSA, 3% w/v; Sigma-Aldrich) in Tris-buffered saline (TBS) containing 0.1% v/v Tween-20 (Sigma-Aldrich) (TBS-T) for 4 h at room temperature or overnight at 4 °C. The membranes were incubated with 6E10 (1:2,000) in the solution of BSA (2% w/v in TBS-T) for 4 h at room temperature. […] A homemade ECL kit21–23 was used to visualize gel/Western blots on a ChemiDoc MP Imaging System (Bio-Rad).
TEM. Samples for TEM were prepared following previously reported methods.22,24 Glow-discharged grids (Formvar/Carbon 300-mesh; Electron Microscopy Sciences, Hatfield, PA, USA) were treated with Ab samples (25 µM; 7.5 µL) for 2 min at room temperature. Excess sample was removed using filter paper followed by washing with ddH2O (3x). Each grid incubated with uranyl […]

[3] = target: T2, Aβ42; experiment: Dot blot assay with anti-oligomer (A11) and anti-fibril (OC) antibodies; conditions: flavonoid 200 μM, up to 24 h
From the text: Moreover, to investigate the effects of the flavonoids on the oligomerization and fibrilization of metal-free Aβ42 and metal–Aβ42, we performed the dot blot assay employing anti-oligomer (A11) and anti-fibril (OC) antibodies,[23] as illustrated in Fig. S12. ^† It should be noted that the thioflavin-T (ThT) assay utilized for monitoring the formation of β-sheet-rich aggregates cannot be carried out under our experimental conditions since the absorption windows of 4, 5, and 4b interfere with the excitation and emission wavelengths of ThT (Fig. S13 ^†). […]
Dot Blot Assay. The samples containing Ab42 (100 µM) with or without CuCl2 or ZnCl2 (100 µM) in the absence and presence of flavonoids (200 µM; 1% v/v DMSO) were prepared in 20 mM HEPES, pH 7.4, 150 mM NaCl and incubated for various time points (0, 1, 2, 3, 4, 6, 12, and 24 h). […] The membrane was incubated with a primary antibody [i.e., 6E1026 for Ab species (1:2,000), A1126 for Ab oligomers (1:1,000; Invitrogen, Carlsbad, CA, USA), or OC26 for Ab fibrils (1:2,000; Merch Millipore, Billerica, MA, USA)] in the solution of BSA (2% w/v in TBS-T) for 4 h at room temperature. […] A homemade ECL kit21–23 was used to visualize the results on a ChemiDoc MP Imaging System.
The intensity observed from A11- or OC-detectable Ab species was quantified, relative to that detected from 6E10, by the ImageJ software. […]

[4] = Zn(II)–Aβ42, Aβ 25 μM, Zn(II) 25 μM
[5] = Cu(II)–Aβ42 or Zn(II)–Aβ42 100 μM

T2 sequence (P05067 672-713 limits assumed): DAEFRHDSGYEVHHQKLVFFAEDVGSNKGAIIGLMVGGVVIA
T1 sequence (O42275 24-633): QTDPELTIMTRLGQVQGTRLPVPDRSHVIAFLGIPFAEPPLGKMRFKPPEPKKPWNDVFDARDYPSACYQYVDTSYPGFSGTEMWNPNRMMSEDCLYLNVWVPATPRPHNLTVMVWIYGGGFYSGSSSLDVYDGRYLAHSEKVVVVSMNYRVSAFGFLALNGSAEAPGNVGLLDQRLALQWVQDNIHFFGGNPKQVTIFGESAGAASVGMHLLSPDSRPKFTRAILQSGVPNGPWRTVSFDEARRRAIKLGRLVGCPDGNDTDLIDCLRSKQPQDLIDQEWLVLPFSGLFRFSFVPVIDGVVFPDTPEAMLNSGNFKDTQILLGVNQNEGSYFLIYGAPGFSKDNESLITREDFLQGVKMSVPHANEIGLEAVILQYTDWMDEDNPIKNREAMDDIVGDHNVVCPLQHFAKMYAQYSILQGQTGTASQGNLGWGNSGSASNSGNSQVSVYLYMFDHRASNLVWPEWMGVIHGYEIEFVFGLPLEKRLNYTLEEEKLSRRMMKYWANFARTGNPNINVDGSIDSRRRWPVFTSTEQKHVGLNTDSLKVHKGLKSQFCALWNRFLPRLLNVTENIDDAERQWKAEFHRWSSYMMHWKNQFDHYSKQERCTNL

Structure (SMILES)	inhibitory activity against AChE (IC50 could not be obtained) ([1]; fluorometric assay, eeAChE)	morphology of resultant aggregates (TEM) ([2]; Cu(II)–Aβ42)	MW distribution of resultant species (gel/western blot) [2, 4]	morphology of resultant aggregates (TEM) ([2]; Zn(II)–Aβ42)	MW distribution of resultant species (gel/western blot) ([2]; metal-free Aβ42 25 μM, 37 °C)	morphology of resultant aggregates (TEM) ([2]; metal-free Aβ42)	A11- and OC-detectable signals (oligomers and fibrils) [3, 5]	A11- and OC-detectable signals (oligomers and fibrils) ([3]; metal-free Aβ42 100 μM)	IC50 [1]	IC50 ([1]; fluorometric assay, eeAChE, read-out: IC50 for AChE inhibition)
COc1cc(OC)c2c(=O)cc(-c3ccccc3)oc2c1 [1a, 5,7-dimethoxyflavone]	negligible inhibitory activity	did not indicate any noticeable morphological changes	a significant change in the MW distribution was not indicated	did not indicate any noticeable morphological changes	could not change the size distribution	little or no morphological alteration	not significantly varied	not significantly varied		
O=c1c(-c2ccccc2)coc2cc(O)cc(O)c12 [1b, 5,7-dihydroxyisoflavone]		did not indicate any noticeable morphological changes	a significant change in the MW distribution was not indicated	did not indicate any noticeable morphological changes	could not change the size distribution	little or no morphological alteration	not significantly varied	not significantly varied	11.8 µM	
COc1cc2oc(-c3ccccc3)cc(=O)c2c(OC)c1OC [4a, 5,6,7-trimethoxyflavone]		did not indicate any noticeable morphological changes	a significant change in the MW distribution was not indicated	did not indicate any noticeable morphological changes	could not change the size distribution	little or no morphological alteration	not significantly varied	not significantly varied		52.5 µM
